In US9643982B2, “Fused tricyclic heterocyclic compounds as HIV integrase inhibitors” (Merck Sharp & Dohme Corp., priority 2013, dated 2017):
Read-outs that look alike come from different tables or passages of the source.

Tested on: HIV-1 (NL4-3 strain)
Experiment: Multiple round HIV-1 infection assay in MT4-GFP cells (Wild Type Cell Assay)
Format: cell-based
Settings: Human immunodeficiency virus 1, NL43, MT4-GFP cells infected with HIV-1 NL4-3, read-out: Wild Type Cell Assay IP
Procedure: HIV-1 replication was monitored using MT4-gag-GFP clone D3 (hereafter designate MT4-GFP), which are MT-4 cells modified to harbor a GFP reporter gene, the expression of which is dependent on the HIV-1 expressed proteins tat and rev. Productive infection of an MT4-GFP cell with HIV-1 results in GFP expression approximately 24 h post-infection.
MT4-GFP cells were maintained at 37° C./5% CO2/90% relative humidity in RPMI 1640 supplemented with 10% fetal bovine serum, 100 U/ml penicillin/streptomycin, and 400 μg/ml G418 to maintain the reporter gene. For infections, MT4-GFP cells were placed in the same medium lacking G418 and infected overnight with HIV-1 (NL4-3 strain) virus at an approximate multiplicity of infection of 0.01 in the same incubation conditions.
Cells were then washed and resuspended in either RPMI 1640 supplemented with 10% normal human serum (NHS) or without NHS at 1.6×10^5 cells/mL (10% NHS or serum-free conditions) or in 100% normal human serum at 2×10^5 cells/mL (100% NHS conditions). Compound plates were prepared by dispensing compounds dissolved in DMSO into wells of 384 well poly D lysine-coated plates (0.2 μl/well) using an ECHO acoustic dispenser. Each compound was tested in a 10 point serial 3-fold dilution (typical final concentrations: 8.4 μM-0.42 nM). Controls included no inhibitor (DMSO only) and a combination of three antiviral agents (efavirenz, indinavir, and the integrase strand transfer inhibitor L-002254051 at final concentrations of 4 μM each). Cells were added (50 μL/well) to compound plates and the infected cells were maintained at 37° C./5% CO2/90% relative humidity.

Row | Structure (SMILES) | EC50 (0 % NHS (serum-free)) [nM] | EC50 (10 % NHS (normal human serum)) [nM]
1 | CNC(=O)c1c2n3c(c(O)c1=O)C(=O)N(Cc1ccc(F)cc1)CC3CC2 (racemic) [Compound 17, 2-(4-fluorobenzyl)-8-hydroxy-N-methyl-1,7-dioxo-2,3,3a,4,5,7-hexahydro-1H-pyrazino[2,1,6-cd]indolizine-6-carboxamide] | 35 | –
2 | CCN1CC2CCc3c(C(=O)NCc4ccc(F)cc4F)c(=O)c(O)c(n32)C1=O (racemic) [Compound 18, N-(2,4-difluorobenzyl)-2-ethyl-8-hydroxy-1,7-dioxo-2,3,3a,4,5,7-hexahydro-1H-pyrazino[2,1,6-cd]indolizine-6-carboxamide] | 2.6 | –
3 | CCN1C(=O)c2c(O)c(=O)c(C(=O)NCc3ccc(F)c(Cl)c3)c3n2[C@@H](CC3)[C@H]1OC (single isomer, unassigned) [Compound 26] | 3.2 | –
4 | COCCN1CC2CC(C)c3c(C(=O)NCc4ccc(F)cc4F)c(=O)c(O)c(n32)C1=O (single isomer, unassigned) [Compound 36] | 3.9 | –
5 | O=C(NCc1ccc(F)c(F)c1F)c1c2n3c(c(O)c1=O)C(=O)N(CC1CC1)C[C@H]3CC2 (single isomer, unassigned) [Compound 21] | 3.1 | –
6 | COCCC(C)N1CC2COCc3c(C(=O)NCc4ccc(F)cc4F)c(=O)c(O)c(n32)C1=O (centres unmarked) [Compound 6] | 24 | –
7 | Cc1c(F)ccc(CNC(=O)c2c3n4c(c(O)c2=O)C(=O)N(C(C)C)CC4COC3)c1F (racemic) [Compound 11] | – | 116
8 | CCN1CC2CC(C)c3c(C(=O)NCc4ccc(F)cc4F)c(=O)c(O)c(n32)C1=O (single isomer, unassigned) [Compound 35, N-(2,4-difluorobenzyl)-2-ethyl-9-hydroxy-6-methyl-1,8-dioxo-2,3,3a,5,6,8-hexahydro-1H-pyrazino[2,1,6-cd]indolizine-7-carboxamide] | 1.2 | –
9 | CC(C)N1CC2COCc3c(C(=O)NCc4ccc(F)cc4F)c(=O)c(O)c(n32)C1=O (racemic) [Compound 2] | – | 33
10 | CCN1C[C@@H]2C[C@@H](OC)c3c(C(=O)NCc4ccc(F)c(Cl)c4F)c(=O)c(O)c(n32)C1=O (single isomer, unassigned) [Compound 34] | 2.9 | –
11 | CC(C)(O)CN1C[C@@H]2CCc3c(C(=O)NCc4ccc(F)c(F)c4F)c(=O)c(O)c(n32)C1=O (single isomer, unassigned) [Compound 23] | 3.8 | –
12 | CC(C)N1CC2COCc3c(C(=O)NCc4ccc(F)c(Cl)c4F)c(=O)c(O)c(n32)C1=O (racemic) [Compound 12] | – | 50
13 | O=C(NCc1ccc(F)cc1F)c1c2n3c(c(O)c1=O)C(=O)N(Cc1cccnc1)CC3COC2 (racemic) [Compound 7] | 9.6 | –
14 | O=C(NCc1ccc(F)cc1F)c1c2n3c(c(O)c1=O)C(=O)N(CCC(F)(F)F)C[C@@H]3CC2 (single isomer, unassigned) [Compound 20] | 3.8 | –
15 | COc1ccc(CN2CC3COCc4c(C(=O)NCc5ccc(F)cc5F)c(=O)c(O)c(n43)C2=O)cc1 (racemic) [Compound 8] | 23 | –
16 | CCN1C[C@H]2C[C@@H](OC)c3c(C(=O)NCc4ccc(F)cc4F)c(=O)c(O)c(n32)C1=O (single isomer, unassigned) [Compound 31] | 3.8 | –
17 | CC(C)N1C[C@@H]2COCc3c(-c4cnn(Cc5ccc(F)cc5F)c4)c(=O)c(O)c(n32)C1=O (single isomer, unassigned) [Compound 15] | 234 | –
18 | CCN1CC2CC(O)c3c(C(=O)NCc4ccc(F)cc4F)c(=O)c(O)c(n32)C1=O (racemic) [Compound 24, N-(2,4-difluorobenzyl)-2-ethyl-5,8-dihydroxy-1,7-dioxo-2,3,3a,4,5,7-hexahydro-1H-pyrazino[2,1,6-cd]indolizine-6-carboxamide] | 2.2 | –
19 | CCN1CC2CC(C)c3c(C(=O)NCc4ccc(F)c(F)c4F)c(=O)c(O)c(n32)C1=O (single isomer, unassigned) [Compound 37] | 1.1 | –

Row | Structure (SMILES) | EC50 (0 % NHS (serum-free)) [nM] | EC50 (10 % NHS (normal human serum)) [nM]
20 | CC(C)N1C[C@@H]2COCc3c(C(=O)NCc4ccc(F)cc4F)c(=O)c(O)c(n32)C1=O (single isomer, unassigned) [Compound 3] | 13 | –
21 | CCN1CC2CC(OC)c3c(C(=O)NCc4ccc(F)cc4F)c(=O)c(O)c(n32)C1=O (racemic) [Compound 29] | 1.2 | –
22 | CCO[C@H]1[C@H]2CCc3c(C(=O)NCc4ccc(F)cc4F)c(=O)c(O)c(n32)C(=O)N1CC (single isomer, unassigned) [Compound 28] | 2.1 | –
23 | CO[C@@H]1C[C@H]2CN(CC3CC3)C(=O)c3c(O)c(=O)c(C(=O)NCc4ccc(F)cc4F)c1n32 (single isomer, unassigned) [Compound 33] | 2.3 | –
24 | CC(C)N1CC2COCc3c(C(=O)NCc4ccc(F)c(Cl)c4)c(=O)c(O)c(n32)C1=O (racemic) [Compound 10] | – | 100
25 | CCO[C@@H]1C[C@H]2CN(CC)C(=O)c3c(O)c(=O)c(C(=O)NCc4ccc(F)cc4F)c1n32 (single isomer, unassigned) [Compound 38] | 1.9 | –
26 | COCCN1C(=O)c2c(O)c(=O)c(C(=O)NCc3ccc(F)cc3F)c3n2[C@H](CC3)[C@@H]1OC (single isomer, unassigned) [Compound 27] | 2.3 | –
27 | CCN1C[C@@H]2C[C@@H](OC)c3c(C(=O)NCc4ccc(F)cc4F)c(=O)c(O)c(n32)C1=O (single isomer, unassigned) [Compound 30] | 1 | –
28 | CC(C)N1CC2C(=O)N(C)Cc3c(C(=O)NCc4ccc(F)cc4F)c(=O)c(O)c(n32)C1=O (racemic) [Compound 16, N-(2,4-difluorobenzyl)-9-hydroxy-2-isopropyl-5-methyl-1,4,8-trioxo-1,2,3,3a,4,5,6,8-octahydro-2,3a1,5-triazaphenalene-7-carboxamide] | 17 | –
29 | COCCN1CC2COCc3c(C(=O)NCc4ccc(F)cc4F)c(=O)c(O)c(n32)C1=O (racemic) [Compound 5] | 9.2 | –
30 | COCCN1C[C@H]2C[C@H](OC)c3c(C(=O)NCc4ccc(F)cc4F)c(=O)c(O)c(n32)C1=O (single isomer, unassigned) [Compound 32] | 2.3 | –
31 | CC(C)N1CC2COCc3c(-c4cnn(Cc5ccc(F)cc5F)c4)c(=O)c(O)c(n32)C1=O (racemic) [Compound 14] | 323 | –
32 | COCCN1CC2CCc3c(C(=O)NCc4c(F)cc(F)cc4OC)c(=O)c(O)c(n32)C1=O (racemic) [Compound 19] | 4.4 | –
33 | CC(C)N1C[C@@H]2COCc3c(C(=O)NCc4ccc(F)c(F)c4F)c(=O)c(O)c(n32)C1=O (single isomer, unassigned) [Compound 9] | – | 20
34 | CO[C@H](C)CN1C[C@H]2CCc3c(C(=O)NCc4ccc(F)cc4F)c(=O)c(O)c(n32)C1=O (single isomer, unassigned) [Compound 22] | 2.8 | –
35 | CN1CC2COCc3c(C(=O)NCc4ccc(F)cc4F)c(=O)c(O)c(n32)C1=O (racemic) [Compound 1] | 9.2 | –
36 | CCN1C(=O)c2c(O)c(=O)c(C(=O)NCc3ccc(F)cc3F)c3n2C(CC3)C1OC (racemic) [Compound 25] | 1.9 | –
37 | CC(C)CN1CC2COCc3c(C(=O)NCc4ccc(F)cc4F)c(=O)c(O)c(n32)C1=O (racemic) [Compound 4] | – | 21
38 | CC(C)N1C[C@@H]2COCc3c(-c4nnc(Cc5ccc(F)cc5F)s4)c(=O)c(O)c(n32)C1=O (single isomer, unassigned) [Compound 13, 9-(5-(2,4-difluorobenzyl)-1,3,4-thiadiazol-2-yl)-7-hydroxy-5-isopropyl-3,3a,4,5-tetrahydro-1H-2-oxa-3a1,5-diazaphenalene-6,8-dione] | 5 | –
